Reference: a melting point compilation (Tetko et al.)

Row | Compound | melting point
1 | CC(NC(=O)CCCCN1C(=O)c2ccccc2C1=O)[P+]([O-])(Oc1ccccc1)Oc1ccccc1 (stereo not given) | 144 °C
2 | Oc1nc(C2CCCCC2)nn1-c1ccccc1 | 197 °C
3 | O=CN(O)CC(=O)O | 120 °C
4 | O=[N+]([O-])c1ccc(C2Nn3c(nnc3-c3ccccc3)S2)cc1 (stereo not given) | 225 °C
5 | Nc1ccc(C(F)(F)F)cc1I | 51 °C
6 | Cc1ccccc1NC(=S)Nc1ccccc1C | 158 °C
7 | N#CC=Cc1cc(C(F)(F)F)cc(C(F)(F)F)c1 | 80 °C
8 | FC(F)(F)C(F)(C(F)(F)F)C(F)(C(F)(F)F)C(F)(F)F | -16.7 °C
9 | COc1cc2nc(N3CCN(C(=O)C4CCCO4)CC3)nc(N)c2cc1OC (stereo not given) | 273 °C
10 | NNC(=O)c1ccc(-c2ccccc2)cc1 | 194 °C
11 | Cc1cc2c(N)cccc2nn1 | 189 to 191 °C
12 | CC(=O)OC1C2=C(C(=O)C(OC(C)=O)C3(CC3C)C2=O)C2(C)CCCC(C)(C)C2C1O (stereo not given) | 172 to 173 °C
13 | CC12CCC3C(CCC4CCCCC43C)C1CCC2O (stereo not given) | 166 °C
14 | CCCCCCCCCc1ccccc1 | -24 °C
15 | c1ccc(CC2CCNCC2)cc1 | 16.8 °C
16 | O=S(=O)(Cl)c1ccc(-c2ccccc2)s1 | 85 to 87 °C
17 | O=C(O)c1cc(F)c(F)cc1Cl | 106 °C
18 | Cc1cncc(C)n1 | 47.5 °C
19 | Cc1nc(C)c(C(=O)O)s1 | 233 to 235 °C
20 | O=C(CBr)c1cccc(F)c1 | 34 to 35 °C
21 | CCCC(N)P(=O)(O)O (stereo not given) | 276 to 281 °C
22 | NC(=S)C1CCN(C(=O)OCc2ccccc2)CC1 | 128 to 130 °C
23 | Nc1c(C=O)ccc2c1C(=O)c1ccccc1C2=O | 228 to 234 °C
24 | C#CC1(OC(C)=O)CCC2C3CCC4=CC(=NO)CCC4C3CCC21CC (stereo not given) | 216 °C
25 | C[C@@H]1C(=O)[C@H](C)[C@@H](c2ccc(Cl)cc2)O[C@H]1c1ccc(Cl)cc1 | 190 °C
26 | CC(C)(C)OC(=O)N1CCC(Oc2ccccc2[N+](=O)[O-])CC1 | 91 to 93 °C

Row | Compound | melting point
27 | CC(C)(C)c1cc([N+](=O)[O-])c(O)c([N+](=O)[O-])c1 | 95 °C
28 | CCCCCCc1ccccc1 | -61 °C
29 | COC1C(OC(=O)C=CC=CC=CC=CC(=O)O)CCC2(CO2)C1C1(C)OC1CC=C(C)C (stereo not given) | 194 °C
30 | N#Cc1ccncc1C#N | 80 °C
31 | O=NN1NC(=O)CC1c1ccc(C2CC(=O)NN2N=O)cc1 (stereo not given) | 150 °C
32 | O=C(O)c1cc(C(F)(F)F)ccc1C(F)(F)F | 79 °C
33 | c1ccc(Nc2nc3ccccc3[nH]2)nc1 | 257 to 259 °C
34 | O=C(CBr)c1cc(-c2ccc(Cl)c(Cl)c2)no1 | 114 to 118 °C
35 | O=C(C(=O)c1ccc([N+](=O)[O-])cc1)c1ccccc1 | 141 to 143 °C
36 | COC(=O)Cc1cccc(OCc2ccccc2)c1 | 34 to 37 °C
37 | CC(=O)c1ccc(N2CCCCC2)cc1 | 84 to 90 °C
38 | NS(=O)(=O)c1ccc(F)cc1C(F)(F)F | 167 °C
39 | CC1=NN(c2ccc(Cl)cc2Cl)C(=O)C1C(Cl)C1(Cl)C(=O)N(c2ccc(Cl)cc2Cl)N=C1C (stereo not given) | 110 to 120 °C
40 | CCCCC(O)(CCCC)CCCC | 20 °C
41 | O=C(Cl)c1cnn(-c2ccc([N+](=O)[O-])cc2)c1C(F)(F)F | 77 to 79 °C
42 | Nc1c(I)cc(I)c(C(=O)N(CCC(=O)O)c2ccccc2)c1I | 134 °C
43 | c1ccc2c(c1)Sc1ccccc1N2CC1CN2CCC1CC2 (stereo not given) | 130 °C
44 | COc1ccc(CC2NCC(O)C2OC(C)=O)cc1 (stereo not given) | 141 °C
45 | NC(CCc1ccccc1)CC(=O)O (stereo not given) | 223 to 227 °C
46 | c1ccc(-c2nc[nH]c2-c2ccccc2)cc1 | 232 °C
47 | Nc1c2c(nc3ccccc13)CCCC2 | 184 °C
48 | CC(=O)Nc1ccc2c(c1)CCCC2=O | 127 to 129 °C
49 | O=C(O)c1ncc[nH]1 | 198 °C
50 | O=C1CC=CCC(=O)CC=CC1 | 184 °C
51 | Cc1csc2nc3ccccc3n12 | 161 to 163 °C
52 | COc1ccc(C2Cc3ccccc3C(O)O2)cc1 (stereo not given) | 114 °C

Row | Compound | melting point
53 | Cc1ccc(CCl)cc1[N+](=O)[O-] | 46 to 50 °C
54 | Cc1cc(C(F)(F)F)n2nc(N)c(/N=N/c3ccc(Cl)cc3Cl)c2n1 | 210 °C
55 | O=[N+]([O-])c1ccc(Br)c([N+](=O)[O-])c1 | 72 °C
56 | O=C(NCCc1c[nH]cn1)C1=NC=NC1 | 176 °C
57 | Cc1ccc(C(=O)O)cc1C(F)(F)F | 177 °C
58 | CC(C)Oc1cccc(OC(C)C)c1-c1ccccc1P(C1CCCCC1)C1CCCCC1 | 124 °C
59 | CC12CCC(C(Cl)C1=O)C2(C)C (stereo not given) | 106 °C
60 | CC1(C)CC(=O)NC(=O)C1 | 145 °C
61 | c1ccc(N=NNc2ccccc2)cc1 | 98 °C
62 | Cc1ccc2cc([N+](=O)[O-])ccc2n1 | 165 to 166 °C
63 | O=C(O)CCn1cncn1 | 177 to 179 °C
64 | Brc1ccc2c(c1)Oc1cc(Br)ccc1O2 | 145 °C
65 | FC(F)(F)c1cc(Cl)c(I)c(Br)c1 | 29 to 31 °C
66 | O=C(O)CCc1ccc(Br)cc1 | 135 °C
67 | CC(C)NCC(O)COc1cccc2[nH]ccc12 (stereo not given) | 170 °C
68 | CC(Cl)C(=O)Cl (stereo not given) | -71 °C
69 | c1cc(CCCc2ccncc2)ccn1 | 55 °C
70 | Oc1ccc2cc(Br)ccc2c1Br | 105 to 107 °C
71 | Cc1cc(Br)c2c(c1N)C(=O)c1ccccc1C2=O | 245 to 252 °C
72 | Nc1cccc2c1C(=O)c1cccc(N)c1C2=O | 319 °C
73 | OCCN1CCN(c2nc3ccc(Cl)cc3s2)CC1 | 128 to 130 °C
74 | Cc1cccc(N2C(=O)C3ON=C(C(=O)c4ccco4)C3C2=O)c1 (stereo not given) | 129 °C
75 | CSc1nc(N)n[nH]1 | 130 to 133 °C
76 | COc1cc(C/C(=N\O)C(=O)O)ccc1O | 139 °C
77 | CC(C)(C=NO)NO | 98 to 100 °C
78 | C=CCCCCCCCCCCCCCCCCCCCC | 38 °C

Row | Compound | melting point
79 | CCOC(=O)C(=O)Nc1cc(C(F)(F)F)cc(C(F)(F)F)c1 | 90 to 92 °C
80 | Cc1cc(C)c(CC(O)c2cc3ccccc3o2)c(C)c1 (stereo not given) | 75 to 76 °C
81 | CC(C)(C)c1cc(C(C)(C)C)n(-c2ccc(N)cc2)n1 | 205 to 207 °C
82 | COC(=O)C1(S(=O)(=O)c2ccc(C)cc2)CC1 | 97.2 °C
83 | Oc1c(F)c(F)c(O)c(F)c1F | 172 to 174 °C
84 | COc1cc(C(=O)O)c(OC)c([N+](=O)[O-])c1 | 180 to 184 °C
85 | O=[N+]([O-])c1ccc2c(c1)CCN2 | 93 °C
86 | O=C(O)c1cccnc1F | 164 to 165 °C
87 | c1cnc2cccnc2c1 | 75 °C
88 | CCN(CC)c1ccc(C=C2SC(=S)NC2=O)cc1 | 163 °C
89 | C=CCCCC(=O)O | -37 °C
90 | Cc1cccc(Cl)c1N | 2 °C
91 | Oc1nc(S)c2nc[nH]c2n1 | 300 °C
92 | ClCC1C(CCl)C2(Cl)C(Cl)=C(Cl)C1(Cl)C2(Cl)Cl (stereo not given) | 105 °C
93 | Nc1cccc(N2CCOCC2)c1 | 118 to 119 °C
94 | CCCCCCCCC=CCCCCCCCCO | 6 °C
95 | N#CCOc1ccc(Cl)cc1Cl | 46 to 48 °C
96 | CC(=O)CSc1ccc(C)cc1 | 96 to 98 °C
97 | COc1cc2c(cc1O)C(Cc1ccc(OC)c(OC)c1)N(C)CC2 (stereo not given) | 127 °C
98 | CCN1CCc2c3n(c4ccccc24)C(C(=O)OC)=CCC31 (stereo not given) | 120 °C
99 | O=c1cc(C(F)(F)F)n2nc(-c3ccc(Cl)cc3)cc2[nH]1 | 155 °C
100 | c1coc(CSCc2ccco2)c1 | 31 °C
101 | Brc1ccc2nsnc2c1 | 59 to 60 °C
102 | NC(=S)c1ccccc1Br | 83 to 85 °C
103 | Nc1nc(-c2ccc3ccccc3c2)cs1 | 155 °C
104 | CCOC(=O)C(C)(C)C1(c2ccc(OC)cc2)CCC(=O)O1 (stereo not given) | 59 °C

Row | Compound | melting point
105 | O=[N+]([O-])c1c(N2CCCCC2)cc(Cl)c2nonc12 | 159 to 161 °C
106 | COc1cc(OC)c(C(=O)/C=C/c2cc3c(cc2[N+](=O)[O-])OCO3)c(OC)c1 | 224 °C
107 | CCN1CC2(COC)CCC(O)C34C5CC6C(OC)CC(O)(C5C6OC)C(O)(C(OC)C23)C14 (stereo not given) | 214 °C
108 | CCC(=C(c1ccccc1)c1ccc(OCCN(C)C)cc1)c1ccccc1 | 96 °C
109 | O=[N+]([O-])c1ccc(Cl)cc1CO | 77 to 82 °C
110 | CC12CCC3C(CCC4CC(=O)CCC43C)C1CCC2O (stereo not given) | 181 °C
111 | Cn1cnc(S(=O)(=O)Cl)c1 | 85 to 90 °C
112 | Cc1ccc(C)c(NN=C2C(=O)NN=C2C(F)(F)F)c1 | 189 °C
113 | O=C(O)C1(C(F)(F)F)CCCC1 | 37 °C
114 | ON=Cc1ccc(OC(F)(F)F)cc1 | 41 °C
115 | Cc1c(C(=O)O)cccc1[N+](=O)[O-] | 184 °C
116 | CC(=O)c1ccc(C2CC2Cl)cc1 (stereo not given) | 45 °C
117 | COc1ccc(CC(N)=O)cc1 | 186 °C
118 | O=C(CCc1ccc(O)cc1)c1c(O)cc(O)cc1O | 260 to 262 °C
119 | COc1ccc(C#N)cc1Br | 122 °C
120 | Brc1ccc(Oc2ccccc2Br)cc1 | < 20 °C
121 | N#Cc1ccccc1C(F)(F)F | 18 °C
122 | CNC(=S)N(C)C | 126 to 127 °C
123 | CC(=O)OCC1OC(C#N)=CC(OC(C)=O)C1OC(C)=O (stereo not given) | 112 to 115 °C
124 | CNc1ccc(O)c2c1C(=O)c1c(O)ccc(NC)c1C2=O | 217 °C
125 | Clc1ccc2c(c1)Cc1cc(Cl)ccc1-2 | 128 °C
126 | CC(C)(C)c1cc(O)c(O)c(O)c1 | 135 °C
127 | CCCC(C1CCCCC1)C1CCCCC1 | -10.5 °C
128 | C=C(C)CCCCCCCCCCCCC | -7 °C
129 | NC(=O)C(F)(F)C(F)(F)C(F)(F)C(F)(F)C(F)(F)C(F)(F)F | 136 °C
130 | CCCCCOc1ccc(/N=N/c2ccc(CCCC)cc2)cc1Cl | 41.5 °C
